Like-named read-outs stand apart in the source and are kept apart here.
Columns and labels:
potassium channels = experiment: IC50 of the compounds for their effect on the potassium channels; format: biochemical; settings: for IC50: methods of Newgreen et al., Bray et al. and wickerden et al., concentration which decreases by 50% an induced pharmacological mechanism such as muscular contraction, read-out: IC50 K+ Channels; for opening effect for potassium channels (in words): summary in words of the table of Example 1
Protocol: (§1) The IC50 corresponds to the concentration which decreases by 50% either an induced pharmacological mechanism, such as muscular contraction,or the attachment of a molecule to its membrane receptor.
In order to determine the IC50 of the compounds for their effect on the potassium channels, they were tested according to the methods of Newgreen et al. (Br. J. Pharmacol., 1990, 100, 605-613), Bray et al. (Arch. Pharmacol., 1991, 344, 351-359) and wickerden et al. (Br. J. Pharmacol., 1991, 103, 1148-1152).
(§2) The values are given in μM

androgen receptors = molecular target: T1, androgen receptors (Rattus norvegicus, UniProt P15207); experiment: IC50 of the compounds for their effect on the androgen receptors; format: binding; settings: for affinity for the androgen receptor (in words): summary in words of the table of Example 1
T1 construct: from tissue; host or cells: rat ventral prostate cytosol, inferred from the cited method
T1 sequence (P15207 1-902): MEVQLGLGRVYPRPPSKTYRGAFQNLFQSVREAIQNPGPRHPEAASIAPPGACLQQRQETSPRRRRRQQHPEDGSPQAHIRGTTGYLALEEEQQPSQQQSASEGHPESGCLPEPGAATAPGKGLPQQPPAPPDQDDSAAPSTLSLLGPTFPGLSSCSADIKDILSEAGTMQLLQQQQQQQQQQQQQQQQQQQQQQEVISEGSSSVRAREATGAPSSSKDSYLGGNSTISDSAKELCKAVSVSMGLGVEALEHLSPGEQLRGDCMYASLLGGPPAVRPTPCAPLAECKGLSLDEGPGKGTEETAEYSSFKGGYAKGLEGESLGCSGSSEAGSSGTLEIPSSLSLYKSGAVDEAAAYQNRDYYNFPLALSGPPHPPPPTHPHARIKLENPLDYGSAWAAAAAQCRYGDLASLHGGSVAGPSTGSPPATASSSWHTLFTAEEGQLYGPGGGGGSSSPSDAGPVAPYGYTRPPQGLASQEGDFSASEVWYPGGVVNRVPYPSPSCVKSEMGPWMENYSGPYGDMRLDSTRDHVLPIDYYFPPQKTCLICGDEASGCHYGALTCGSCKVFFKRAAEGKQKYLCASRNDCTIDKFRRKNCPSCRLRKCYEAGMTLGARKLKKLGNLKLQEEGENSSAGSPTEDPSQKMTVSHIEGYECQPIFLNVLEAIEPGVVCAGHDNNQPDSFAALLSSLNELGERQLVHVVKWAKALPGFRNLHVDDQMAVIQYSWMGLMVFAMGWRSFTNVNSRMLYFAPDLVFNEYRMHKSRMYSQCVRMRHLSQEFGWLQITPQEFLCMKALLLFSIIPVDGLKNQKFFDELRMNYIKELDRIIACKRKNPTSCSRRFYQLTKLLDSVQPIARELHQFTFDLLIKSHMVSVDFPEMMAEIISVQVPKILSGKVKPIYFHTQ
Protocol: as §1
In order to determine the IC50 of the compounds for their effect on the androgen receptors, they were tested according to the method of Schilling and Liao ("The Prostate", 1984, 5, 581-588).
as §2

[1] = method of Schilling and Liao, concentration which decreases by 50% the attachment of a molecule to its receptor, read-out: IC50 Androgen receptors

| IC50 (androgen receptors; [1]) [nM] | SMILES | IC50 (potassium channels) [nM] | opening effect for potassium channels (in words) (potassium channels) | IC50 (androgen receptors) [nM] | affinity for the androgen receptor (in words) (androgen receptors) |
| --- | --- | --- | --- | --- | --- |
|  | CC(O)(C(=O)Nc1ccc(C#N)c(C(F)(F)F)c1)C(F)(F)F (stereo not shown) [A, N-(4-cyano-3-(trifluoromethyl)phenyl)-3,3,3-trifluoro-2-hydroxy-2-methylpropionamide] | 500 | excellent opening effect | 1000 | good affinity |
|  | CC(O)(C(=O)Nc1ccc(C#N)c(Cl)c1)C(F)(F)F (stereo not shown) [B, N-(3-chloro-4-cyanophenyl)-3,3,3-trifluoro-2-hydroxy-2-methylpropionamide] | 100 | excellent opening effect | 500 | good affinity |
| 1000 | CC(O)(C(=O)Nc1ccc(Cl)c(Cl)c1)C(F)(F)F (stereo not shown) [C, N-(3,4-dichlorophenyl)-3,3,3-trifluoro-2-hydroxy-2-methylpropionamide] | 2000 | excellent opening effect |  | good affinity |
|  | CC(O)(C(=O)Nc1ccc(C#N)c(C(F)(F)F)c1)c1ccccc1 (stereo not shown) [D, N-(4-cyano-3-(trifluoromethyl)phenyl)-2-hydroxy-2-phenylpropionamide] | 3000 | excellent opening effect | 3000 | good affinity |
|  | CC(O)(C(=O)Nc1ccc(C#N)c(C#N)c1)C(F)(F)F (stereo not shown) [E, N-(3,4-dicyanophenyl)-3,3,3-trifluoro-2-hydroxy-2-methylpropionamide] | 1000 | excellent opening effect | 10000 | good affinity |
| > 10000 | CC(O)(C(=O)Nc1ccc(C#N)cc1)C(F)(F)F (stereo not shown) [G, N-(4-cyanophenyl)-3,3,3-trifluoro-2-hydroxy-2-methylpropionamide, reference compound] | 10000 | poor opening effect |  | poor affinity |

| SMILES | IC50 (androgen receptors; [1]) [nM] | IC50 (potassium channels) [nM] | opening effect for potassium channels (in words) (potassium channels) | IC50 (androgen receptors) [nM] | affinity for the androgen receptor (in words) (androgen receptors) |
| --- | --- | --- | --- | --- | --- |
| CC(O)(C(=O)Nc1ccc([N+](=O)[O-])c(C(F)(F)F)c1)C(F)(F)F (stereo not shown) [F, N-(4-nitro-3-(trifluoromethyl)phenyl)-3,3,3-trifluoro-2-hydroxy-2-methylpropionamide, reference compound] | > 10000 | > 10000 | poor opening effect |  | poor affinity |
